Measured values reported in patent publication US20070264355A1, “BINARY COMPOSITIONS AND METHODS FOR STERILIZATION” (Binary, LLC, priority 2005, published 2007).
Where “and” joins values, the source holds several entries; their conditions need not be identical. Equal values may be shown once.

Tested on: Staphylococcus aureus (ATCC 6538)
Assay: Microbicidal activity against Staphylococcus aureus (suspension test, surviving CFU)
Assay type: cell-based
Experimental: Bacterial suspensions, specifically Staphylococcus aureus (ATCC 6538) in this example, were prepared by the shake flask method to achieve late log to early stationary phase growth. Bacteria were grown 24 hours in trypticase soy broth (TSB) at 35° C. The cultures were centrifuged at 4,000 rpm for 10 minutes and the supernatants removed. The pellet was collected and washed twice with sterile 0.9% normal saline. The washed microorganisms were suspended and diluted with normal saline to a 3 McFarland standard, i.e., approximately 10^9 bacteria colony forming units (CFU) per ml. Actual colony counts are confirmed by serial dilutions (10^−1 to 10^−5 or 10^−6) plated on trypticase soy agar (TSA) and incubated overnight at 35° C. One hundred microliters of organisms from a stock of 10^7 CFU/ml were used to obtain an approximate final working target inoculum of 10^6 CFU. The microbicidal test is conducted in a vial containing 1.4 ml of final reaction mixture after neutralization.
Each solution was used alone for the individual controls. Organism suspensions were used to achieve a final target concentration of 2-3×10^6 CFU per ml. For the binary system treatments, sodium hypochlorite solution and hydrogen peroxide solution, non-acidified or acidified, were sequentially added to the microorganisms. Acidified hydrogen peroxide solution was obtained by the addition of 1.0% v/v of 0.001 N hydrochloride solution. After each addition, the resulting mixture was allowed to remain in contact with the organisms for a set amount of time at room temperature (about 22° C.), as listed in the Tables 1 and 2. At the end of the treatment time, the mixtures were neutralized with 200 to 500 microliters of thiosulfate solution (2.4%) to quench the activity of sodium hypochlorite and then treated with 100 to 200 microliters of a 1% catalase solution, containing a minimum of 100 units/ul, to quench the hydrogen peroxide activity. If needed, an appropriate volume of sterile saline was added to bring the final volume of reaction mixture to 1.4 ml after neutralization. Serial dilution plate counts were performed from the contents of each vial in sterile saline and inoculated onto TSA for quantitative culture. Plates were then incubated at 37° C. and counts taken at 24 hours.
After an additional 30 minutes, the binary system mixture was then neutralized using 2.4% thiosulfate followed by 1% catalase as described in the Methods Section.

[1] = NaOCl 0.02 mM 15 min, then saline 30 min, inoculum 2530000 CFU
[2] = NaOCl 0.02 mM 15 min, inoculum 2500000 CFU
[3] = NaOCl 0.02 mM 15 min, inoculum 2530000 CFU
[4] = NaOCl 0.03 mM 15 min, then saline 30 min, inoculum 2530000 CFU
[5] = NaOCl 0.03 mM 15 min, inoculum 2500000 CFU
[6] = NaOCl 0.03 mM 15 min, inoculum 2530000 CFU
[7] = NaOCl 0.04 mM 15 min, then saline 30 min, inoculum 2530000 CFU
[8] = NaOCl 0.04 mM 15 min, inoculum 2500000 CFU
[9] = NaOCl 0.04 mM 15 min, inoculum 2530000 CFU
[10] = NaOCl 0.05 mM 15 min, then saline 30 min, inoculum 2530000 CFU
[11] = NaOCl 0.05 mM 15 min, inoculum 2530000 CFU
[12] = NaOCl 0.06 mM 15 min, then saline 30 min, inoculum 2530000 CFU
[13] = NaOCl 0.06 mM 15 min, inoculum 2530000 CFU
[14] = NaOCl 0.07 mM 5 min, inoculum 1600000 CFU
[15] = NaOCl 0.07 mM 15 min, then saline 30 min, inoculum 2530000 CFU
[16] = NaOCl 0.07 mM 15 min, inoculum 1600000 CFU
[17] = NaOCl 0.07 mM 15 min, inoculum 2530000 CFU
[18] = NaOCl 0.07 mM 30 min, inoculum 1600000 CFU
[19] = NaOCl 0.71 mM 5 min, inoculum 1600000 CFU
[20] = NaOCl 0.71 mM 15 min, inoculum 1600000 CFU
[21] = NaOCl 0.71 mM 30 min, inoculum 1600000 CFU
[22] = NaOCl 7.05 mM 5 min, inoculum 1600000 CFU
[23] = NaOCl 7.05 mM 15 min, inoculum 1600000 CFU
[24] = NaOCl 7.05 mM 30 min, inoculum 1600000 CFU
[25] = NaOCl 70.53 mM 5 min, inoculum 1600000 CFU
[26] = NaOCl 70.53 mM 15 min, inoculum 1600000 CFU
[27] = NaOCl 70.53 mM 30 min, inoculum 1600000 CFU
[28] = NaOCl 705.27 mM 5 min, inoculum 1600000 CFU
[29] = NaOCl 705.27 mM 15 min, inoculum 1600000 CFU
[30] = NaOCl 705.27 mM 30 min, inoculum 1600000 CFU

In the case of `[Na+].[O-]Cl` [NaOCl, sodium hypochlorite], the “Log 10 (CFU + 1) Survivors” value [1] is reported as 3.0, the “Log Reduction” value [1] is reported as 3.4 and the “Total Viability (CFU)” value [1] is reported as 1092 CFU. The “Log 10 (CFU + 1) Survivors” value [2] was 6.3, the “Log Reduction” value [2] was 0.1 and 0.12 and the “Total Viability (CFU)” value [2] was 1890000 CFU. The “Log 10 (CFU + 1) Survivors” value [3] was 3.1, the “Log Reduction” value [3] was 3.3 and 3.29 and the “Total Viability (CFU)” value [3] was 1288 CFU. The “Log 10 (CFU + 1) Survivors” value [4] was 2.4, the “Log Reduction” value [4] was 4.0 and the “Total Viability (CFU)” value [4] was 260 CFU. The “Log 10 (CFU + 1) Survivors” value [5] was 4.9, the “Log Reduction” value [5] was 1.5 and 1.53 and the “Total Viability (CFU)” value [5] was 74200 CFU. For the same molecule, the “Log 10 (CFU + 1) Survivors” value [6] was 2.9, the “Log Reduction” value [6] was 3.5 and 3.51 and the “Total Viability (CFU)” value [6] was 784 CFU. The “Log 10 (CFU + 1) Survivors” value [7] was 1.3, the “Log Reduction” value [7] was 5.1 and the “Total Viability (CFU)” value [7] was 18 CFU. For the same molecule, the “Log 10 (CFU + 1) Survivors” value [8] was 2.8, the “Log Reduction” value [8] was 3.6 and 3.61 and the “Total Viability (CFU)” value [8] was 616 CFU. For the same molecule, the “Log 10 (CFU + 1) Survivors” value [9] was 2.2, the “Log Reduction” value [9] was 4.2 and 4.18 and the “Total Viability (CFU)” value [9] was 167 CFU. The “Log 10 (CFU + 1) Survivors” value [10] was 1.1, the “Log Reduction” value [10] was 5.3 and the “Total Viability (CFU)” value [10] was 13 CFU. For the same molecule, the “Log 10 (CFU + 1) Survivors” value [11] was 1.3, the “Log Reduction” value [11] was 5.1 and 5.15 and the “Total Viability (CFU)” value [11] was 17 CFU. For the same molecule, the “Log 10 (CFU + 1) Survivors” value [12] was 0.9, the “Log Reduction” value [12] was 5.5 and the “Total Viability (CFU)” value [12] was 7 CFU. The “Log 10 (CFU + 1) Survivors” value [13] was 0.0, the “Log Reduction” value [13] was 6.4 and the “Total Viability (CFU)” value [13] was 0 CFU. For the same molecule, the “Log 10 (CFU + 1) Survivors” value [14] was 0.7, the “Log Reduction” value [14] was 5.5 and the “Total Viability (CFU)” value [14] was 4 CFU. For the same molecule, the “Total Viability (CFU)” value (NaOCl 0.07 mM 5 min, inoculum 1600000 CFU, listed as sodium hypochlorite) was “four”, the “Log 10 (CFU + 1) Survivors” value [15] was 0.0 and the “Log Reduction” value [15] was 6.4. The “Total Viability (CFU)” value [15] was 0 CFU, the “Log 10 (CFU + 1) Survivors” value [16] was 0.9 and the “Log Reduction” value [16] was 5.3. The “Total Viability (CFU)” value [16] was 7 CFU, the “Total Viability (CFU)” value (NaOCl 0.07 mM 15 min, inoculum 1600000 CFU, listed as sodium hypochlorite) was “seven” and the “Log 10 (CFU + 1) Survivors” value [17] was 0.0. For the same molecule, the “Log Reduction” value [17] was 6.4, the “Total Viability (CFU)” value [17] was 0 CFU and the “Log 10 (CFU + 1) Survivors” value [18] was 0.0. For the same molecule, the “Log Reduction” value [18] was 6.2, the “Total Viability (CFU)” value [18] was 0 CFU and the “Log 10 (CFU + 1) Survivors” value [19] was 0.0. The “Log Reduction” value [19] was 6.2, the “Total Viability (CFU)” value [19] was 0 CFU and the “Log 10 (CFU + 1) Survivors” value [20] was 0.0. For the same molecule, the “Log Reduction” value [20] was 6.2, the “Total Viability (CFU)” value [20] was 0 CFU and the “Log 10 (CFU + 1) Survivors” value [21] was 0.0. For the same molecule, the “Log Reduction” value [21] was 6.2, the “Total Viability (CFU)” value [21] was 0 CFU and the “Log 10 (CFU + 1) Survivors” value [22] was 0.0. For the same molecule, the “Log Reduction” value [22] was 6.2, the “Total Viability (CFU)” value [22] was 0 CFU and the “Log 10 (CFU + 1) Survivors” value [23] was 0.0. The “Log Reduction” value [23] was 6.2, the “Total Viability (CFU)” value [23] was 0 CFU and the “Log 10 (CFU + 1) Survivors” value [24] was 0.0. The “Log Reduction” value [24] was 6.2, the “Total Viability (CFU)” value [24] was 0 CFU and the “Log 10 (CFU + 1) Survivors” value [25] was 0.0. The “Log Reduction” value [25] was 6.2, the “Total Viability (CFU)” value [25] was 0 CFU and the “Log 10 (CFU + 1) Survivors” value [26] was 0.0. For the same molecule, the “Log Reduction” value [26] was 6.2, the “Total Viability (CFU)” value [26] was 0 CFU and the “Log 10 (CFU + 1) Survivors” value [27] was 0.0. For the same molecule, the “Log Reduction” value [27] was 6.2, the “Total Viability (CFU)” value [27] was 0 CFU and the “Log 10 (CFU + 1) Survivors” value [28] was 0.0. For the same molecule, the “Log Reduction” value [28] was 6.2, the “Total Viability (CFU)” value [28] was 0 CFU and the “Log 10 (CFU + 1) Survivors” value [29] was 0.0. For the same molecule, the “Log Reduction” value [29] was 6.2, the “Total Viability (CFU)” value [29] was 0 CFU and the “Log 10 (CFU + 1) Survivors” value [30] was 0.0. The “Log Reduction” value [30] was 6.2 and the “Total Viability (CFU)” value [30] was 0 CFU.
